Data as given in US20160095867A1, “BET INHIBITION THERAPY FOR HEART DISEASE” (DANA-FARBER CANCER INSTITUTE, INC., priority 2013, published 2016).

Each compound was assayed on NRVM (assay: PE-mediated cardiomyocyte hypertrophy in NRVM (cell area measurement)). Conditions: equimolar doses (500 nM), PE 100 μM, 48 hours.
Format: cell-based, rat
Method: NRVM were isolated from the hearts of 2 day old Sprague-Dawley rat pups (Charles River) and maintained under standard conditions as described (Haldar et al., 2010). The cells were differentially plated for 1.5 h in cell culture dishes to remove contaminating non-myocytes. Unless otherwise stated, NRVM were plated at a density of 10^5 cells/mL. Cells were initially plated in growth medium (DMEM supplemented with 5% FBS, 100 U/mL penicillin-streptomycin, and 2 mM L-glutamine) for 24-36 hours and maintained in serum-free media thereafter (DMEM supplemented with 0.1% BSA, 1% insulin-transferrin-selenium liquid media supplement (Sigma 13146), 100 U/mL penicillin-streptomycin, and 2 mM L-glutamine). Media was changed every 2-3 days. Prior to stimulation with agonists, NRVM were maintained in serum-free medium for 48-72 hours. For hypertrophic stimulation, NRVM were incubated with JQ1 versus DMSO at indicated concentrations for 6 h followed by stimulation with PE (100 μM) for indicated timepoints.
NRVM were plated on glass coverslips in 6-well dishes at a density of 10^5 cells/mL. After treatments, cells were briefly fixed in PBS containing 2% PFA, permeabilized with PBST/0.1% Triton X-100, and blocked in PBST/5% horse serum. Primary antibody was anti-sarcomeric α-actinin (Sigma A7811) at 1:800. Fluorophore-tagged anti-mouse secondary antibody (α-mouse Alexa 488 green) was used at 1:1000 dilution. Coverslips were mounted on glass slides with mounting media containing DAPI. Quantitation of cardiomyocyte cell surface area was performed on α-actinin-stained cardiomyocytes using fluorescent microscopy and NIH Image J software as previously described (Liang et al., 2001). Analysis consisted of at least 100 cardiomyocytes in 20-30 fields at 400× magnification. This process was replicated in a least three independent experiments, and the data were combined.
For COc1cc(OC)c2c(=O)[nH]c(-c3cc(C)c(OCCO)c(C)c3)nc2c1 [RVX-208], the “inhibition of agonist-induced cardiomyocyte hypertrophy (cell area)” value (“inhibition” for short) was “inhibition of agonist-induced cardiomyocyte hypertrophy was indeed a class effect”. For COc1cc2c(cc1-c1c(C)noc1C)ncc1[nH]c(=O)n([C@H](C)c3ccccn3)c12 [iBET-151], the “inhibition” value was “inhibition of agonist-induced cardiomyocyte hypertrophy was indeed a class effect”. In the case of CCNC(=O)C[C@@H]1N=C(c2ccc(Cl)cc2)c2cc(OC)ccc2-n2c(C)nnc21 [iBET], the “inhibition” value is reported as “inhibition of agonist-induced cardiomyocyte hypertrophy was indeed a class effect”.
